Data taken from the NIST ThermoML archive (doi:10.1016/j.jct.2006.09.008).
± gives the expanded uncertainty stated by the source.

Assay: molar heat capacity at constant pressure; mn = molality of the nth substance listed, in mol/kg
Conditions: 350 kPa, Liquid

O=[N+]([O-])[O-].O=[N+]([O-])[O-].[Mg+2] [magnesium nitrate] + O
molar heat capacity at constant pressure [J/K/mol]
Conditions | m1 = 0.0228 | m1 = 0.0567 | m1 = 0.1086 | m1 = 0.2145 | m1 = 0.3197 | m1 = 0.4749 | m1 = 0.6211 | m1 = 0.811 | m1 = 1.014
278.15 K | 75.58 ± 0.3 | 75.4 ± 0.3 | 75.14 ± 0.3 | 74.65 ± 0.3 | 74.24 ± 0.3 | 73.72 ± 0.29 | 73.31 ± 0.29 | 72.9 ± 0.29 | 72.59 ± 0.29
283.15 K | 75.43 ± 0.3 | 75.26 ± 0.3 | 75.04 ± 0.3 | 74.61 ± 0.3 | 74.25 ± 0.3 | 73.79 ± 0.29 | 73.43 ± 0.29 | 73.07 ± 0.29 | 72.79 ± 0.29
288.15 K | 75.33 ± 0.3 | 75.17 ± 0.3 | 74.98 ± 0.3 | 74.6 ± 0.3 | 74.28 ± 0.3 | 73.86 ± 0.3 | 73.54 ± 0.29 | 73.22 ± 0.29 | 72.97 ± 0.29
293.15 K | 75.26 ± 0.3 | 75.12 ± 0.3 | 74.94 ± 0.3 | 74.6 ± 0.3 | 74.31 ± 0.3 | 73.94 ± 0.3 | 73.65 ± 0.29 | 73.35 ± 0.29 | 73.12 ± 0.29
298.15 K | 75.22 ± 0.3 | 75.09 ± 0.3 | 74.92 ± 0.3 | 74.62 ± 0.3 | 74.35 ± 0.3 | 74.01 ± 0.3 | 73.74 ± 0.3 | 73.47 ± 0.29 | 73.26 ± 0.29
303.15 K | 75.19 ± 0.3 | 75.07 ± 0.3 | 74.92 ± 0.3 | 74.64 ± 0.3 | 74.39 ± 0.3 | 74.07 ± 0.3 | 73.83 ± 0.3 | 73.58 ± 0.29 | 73.38 ± 0.29
308.15 K | 75.18 ± 0.3 | 75.07 ± 0.3 | 74.92 ± 0.3 | 74.66 ± 0.3 | 74.43 ± 0.3 | 74.13 ± 0.3 | 73.91 ± 0.3 | 73.67 ± 0.29 | 73.48 ± 0.29
313.15 K | 75.18 ± 0.3 | 75.07 ± 0.3 | 74.94 ± 0.3 | 74.69 ± 0.3 | 74.47 ± 0.3 | 74.19 ± 0.3 | 73.98 ± 0.3 | 73.75 ± 0.29 | 73.58 ± 0.3
318.15 K | 75.2 ± 0.3 | 75.09 ± 0.3 | 74.96 ± 0.3 | 74.72 ± 0.3 | 74.52 ± 0.3 | 74.25 ± 0.3 | 74.04 ± 0.3 | 73.83 ± 0.29 | 73.66 ± 0.3
323.15 K | 75.22 ± 0.3 | 75.12 ± 0.3 | 74.99 ± 0.3 | 74.76 ± 0.3 | 74.56 ± 0.3 | 74.3 ± 0.3 | 74.11 ± 0.3 | 73.9 ± 0.3 | 73.74 ± 0.3
328.15 K | 75.25 ± 0.3 | 75.15 ± 0.3 | 75.03 ± 0.3 | 74.81 ± 0.3 | 74.61 ± 0.3 | 74.36 ± 0.3 | 74.17 ± 0.3 | 73.97 ± 0.3 | 73.82 ± 0.3
333.15 K | 75.29 ± 0.3 | 75.19 ± 0.3 | 75.07 ± 0.3 | 74.85 ± 0.3 | 74.66 ± 0.3 | 74.42 ± 0.3 | 74.23 ± 0.3 | 74.03 ± 0.3 | 73.89 ± 0.3
338.15 K | 75.34 ± 0.3 | 75.24 ± 0.3 | 75.12 ± 0.3 | 74.91 ± 0.3 | 74.72 ± 0.3 | 74.48 ± 0.3 | 74.3 ± 0.3 | 74.1 ± 0.3 | 73.95 ± 0.3
343.15 K | 75.39 ± 0.3 | 75.3 ± 0.3 | 75.18 ± 0.3 | 74.96 ± 0.3 | 74.78 ± 0.3 | 74.54 ± 0.3 | 74.36 ± 0.3 | 74.16 ± 0.3 | 74.02 ± 0.3
348.15 K | 75.46 ± 0.3 | 75.36 ± 0.3 | 75.24 ± 0.3 | 75.02 ± 0.3 | 74.84 ± 0.3 | 74.6 ± 0.3 | 74.42 ± 0.3 | 74.22 ± 0.3 | 74.08 ± 0.3
353.15 K | 75.53 ± 0.3 | 75.43 ± 0.3 | 75.31 ± 0.3 | 75.09 ± 0.3 | 74.9 ± 0.3 | 74.66 ± 0.3 | 74.48 ± 0.3 | 74.28 ± 0.3 | 74.14 ± 0.3
358.15 K | 75.61 ± 0.3 | 75.51 ± 0.3 | 75.38 ± 0.3 | 75.16 ± 0.3 | 74.97 ± 0.3 | 74.73 ± 0.3 | 74.55 ± 0.3 | 74.35 ± 0.3 | 74.2 ± 0.3
363.15 K | 75.69 ± 0.3 | 75.59 ± 0.3 | 75.46 ± 0.3 | 75.24 ± 0.3 | 75.04 ± 0.3 | 74.8 ± 0.3 | 74.61 ± 0.3 | 74.42 ± 0.3 | 74.27 ± 0.3
368.15 K | 75.78 ± 0.3 | 75.68 ± 0.3 | 75.55 ± 0.3 | 75.32 ± 0.3 | 75.12 ± 0.3 | 74.87 ± 0.3 | 74.68 ± 0.3 | 74.48 ± 0.3 | 74.33 ± 0.3
373.15 K | 75.88 ± 0.3 | 75.78 ± 0.3 | 75.64 ± 0.3 | 75.4 ± 0.3 | 75.21 ± 0.3 | 74.95 ± 0.3 | 74.76 ± 0.3 | 74.55 ± 0.3 | 74.4 ± 0.3
378.15 K | 75.99 ± 0.3 | 75.88 ± 0.3 | 75.74 ± 0.3 | 75.5 ± 0.3 | 75.32 ± 0.3 | 75.05 ± 0.3 | 74.83 ± 0.3 | 74.63 ± 0.3 | 74.47 ± 0.3
383.15 K | 76.11 ± 0.3 | 76 ± 0.3 | 75.85 ± 0.3 | 75.6 ± 0.3 | 75.42 ± 0.3 | 75.14 ± 0.3 | 74.92 ± 0.3 | 74.71 ± 0.3 | 74.55 ± 0.3
388.15 K | 76.24 ± 0.31 | 76.12 ± 0.3 | 75.97 ± 0.3 | 75.7 ± 0.3 | 75.52 ± 0.3 | 75.24 ± 0.3 | 75.03 ± 0.3 | 74.79 ± 0.3 | 74.63 ± 0.3
393.15 K | 76.38 ± 0.31 | 76.25 ± 0.3 | 76.09 ± 0.31 | 75.82 ± 0.3 | 75.63 ± 0.3 | 75.34 ± 0.3 | 75.15 ± 0.3 | 74.89 ± 0.3 | 74.73 ± 0.3
